Test results: PubChem BioAssay (NCI)
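Grown in 96-well plates, cells were treated for 48 hours with each compound at five concentrations. Insufficient inhibition: endpoint recorded as highest concentration tested. Here, GI50 denotes the concentration required for 50% inhibition of growth. Definition used: TGI = concentration required for complete inhibition of growth.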

Assays:
Assay in all cases: DTP human tumour cell line panel, 48 h
NCI-H460 lung = tested on: NCI-H460 lung
NCI-H522 lung = tested on: NCI-H522 lung
NCI/ADR-RES ovarian = tested on: NCI/ADR-RES ovarian
OVCAR-3 ovarian = tested on: OVCAR-3 ovarian
OVCAR-4 ovarian = tested on: OVCAR-4 ovarian
OVCAR-5 ovarian = tested on: OVCAR-5 ovarian
OVCAR-8 ovarian = tested on: OVCAR-8 ovarian
PC-3 prostate = tested on: PC-3 prostate
RPMI-8226 leukemia = tested on: RPMI-8226 leukemia
RXF 393 renal = tested on: RXF 393 renal
SF-268 CNS = tested on: SF-268 CNS
SF-295 CNS = tested on: SF-295 CNS
SF-539 CNS = tested on: SF-539 CNS
SK-MEL-2 melanoma = tested on: SK-MEL-2 melanoma
SK-MEL-28 melanoma = tested on: SK-MEL-28 melanoma
SK-MEL-5 melanoma = tested on: SK-MEL-5 melanoma
SK-OV-3 ovarian = tested on: SK-OV-3 ovarian
SN12C renal = tested on: SN12C renal
SNB-19 CNS = tested on: SNB-19 CNS
SNB-75 CNS = tested on: SNB-75 CNS
SR leukemia = tested on: SR leukemia
SW-620 colon = tested on: SW-620 colon
T-47D breast = tested on: T-47D breast
TK-10 renal = tested on: TK-10 renal
U251 CNS = tested on: U251 CNS
UACC-257 melanoma = tested on: UACC-257 melanoma
UACC-62 melanoma = tested on: UACC-62 melanoma
UO-31 renal = tested on: UO-31 renal

COc1c(Cl)ccc2c(-c3nc4cc(Cl)c(F)cc4s3)cc(=O)oc12
TGI (NCI-H460 lung): > 100 µM | GI50 (NCI-H522 lung): 1.6 µM | TGI (NCI-H522 lung): 3.38 µM | GI50 (NCI/ADR-RES ovarian): 8.76 µM | TGI (NCI/ADR-RES ovarian): > 100 µM | GI50 (OVCAR-3 ovarian): 3.94 µM | TGI (OVCAR-3 ovarian): 22 µM | GI50 (OVCAR-4 ovarian): 12.9 µM | TGI (OVCAR-4 ovarian): 70.6 µM | GI50 (OVCAR-5 ovarian): 15.3 µM | TGI (OVCAR-5 ovarian): > 53.3 µM | GI50 (OVCAR-8 ovarian): 11.2 µM | TGI (OVCAR-8 ovarian): > 100 µM | GI50 (PC-3 prostate): 4.46 µM | TGI (PC-3 prostate): 15.5 µM | GI50 (RPMI-8226 leukemia): 3.58 µM | TGI (RPMI-8226 leukemia): > 38.2 µM | GI50 (RXF 393 renal): 5.83 µM | TGI (RXF 393 renal): 17.7 µM | GI50 (SF-268 CNS): 2.93 µM | TGI (SF-268 CNS): 8.89 µM | GI50 (SF-295 CNS): 10.4 µM | TGI (SF-295 CNS): 52 µM | GI50 (SF-539 CNS): 1.77 µM | TGI (SF-539 CNS): 3.36 µM | GI50 (SK-MEL-2 melanoma): 21.4 µM | TGI (SK-MEL-2 melanoma): 87.9 µM | GI50 (SK-MEL-28 melanoma): 26.5 µM | TGI (SK-MEL-28 melanoma): > 78 µM | GI50 (SK-MEL-5 melanoma): 26.5 µM | TGI (SK-MEL-5 melanoma): > 88.4 µM | GI50 (SK-OV-3 ovarian): 7.03 µM | TGI (SK-OV-3 ovarian): 19.9 µM | GI50 (SN12C renal): 23.2 µM | TGI (SN12C renal): > 90.3 µM | GI50 (SNB-19 CNS): > 43.4 µM | TGI (SNB-19 CNS): > 72.3 µM | GI50 (SNB-75 CNS): 1.56 µM | TGI (SNB-75 CNS): 3.28 µM | GI50 (SR leukemia): 2.2 µM | TGI (SR leukemia): 8.23 µM | GI50 (SW-620 colon): 10.3 µM | TGI (SW-620 colon): > 100 µM | GI50 (T-47D breast): 13 µM | TGI (T-47D breast): 45.5 µM | GI50 (TK-10 renal): 17.4 µM | TGI (TK-10 renal): 46.1 µM | GI50 (U251 CNS): 7.57 µM | TGI (U251 CNS): 44.7 µM | GI50 (UACC-257 melanoma): 26.5 µM | TGI (UACC-257 melanoma): > 73.6 µM | GI50 (UACC-62 melanoma): 16.5 µM | TGI (UACC-62 melanoma): 53.7 µM | GI50 (UO-31 renal): 1.44 µM | TGI (UO-31 renal): 3.15 µM
